Species: Rattus norvegicus
Assay: Open TG-GATES - Regimen: Daily Repeat
Type: toxicity, organism-based, Sprague-Dawley
Parameters: regimen Daily Repeat, gender Male, age 6 weeks
Settings: in vivo, po, 100 mg/kg, route gavage, dose level High; for APTT / Bas / Eos / Fbg / Hb / Ht / Lym / MCH / MCHC / MCV / Mono / Neu / PT / Plat / RBC / Ret / WBC: tissue Blood; for KIDNEY_L / KIDNEY_R / KIDNEY_TOTAL: tissue Kidney; for LIVER: tissue Liver; for A/G / ALP / ALT / AST / BUN / CRE / Ca / Cl / DBIL / GLC / IP / K / LDH / Na / PL / RALB / TBIL / TC / TG / TP / gamma-GTP: tissue Plasma

Q: Which results are given for `CN(C)CCN(Cc1cccs1)c1ccccn1`?
A: TERMINAL_BW (72 h, time 3 day): 205.4 g; APTT (72 h, time 3 day): 20.1 s; Bas (72 h, time 3 day): 0%; Eos (72 h, time 3 day): 1%; Fbg (72 h, time 3 day): 285.6 mg/dL; Hb (72 h, time 3 day): 13 g/dL; Ht (72 h, time 3 day): 38.7%; Lym (72 h, time 3 day): 75.2%; MCH (72 h, time 3 day): 20.8 pg; MCHC (72 h, time 3 day): 33.7%; MCV (72 h, time 3 day): 61.8 fL; Mono (72 h, time 3 day): 2.2%; Neu (72 h, time 3 day): 20.8%; PT (72 h, time 3 day): 15.9 s; Plat (72 h, time 3 day): 132.3 x10_4/uL; RBC (72 h, time 3 day): 626.8 x10_4/ul; Ret (72 h, time 3 day): 4.7%; WBC (72 h, time 3 day): 84.8 x10_2/uL; KIDNEY_L (72 h, time 3 day): 0.9 g; KIDNEY_R (72 h, time 3 day): 1 g; KIDNEY_TOTAL (72 h, time 3 day): 1.9 g; LIVER (72 h, time 3 day): 10.6 g; A/G (72 h, time 3 day): 1.2; ALP (72 h, time 3 day): 1934 IU/L; ALT (72 h, time 3 day): 61.2 IU/L; AST (72 h, time 3 day): 106.4 IU/L; BUN (72 h, time 3 day): 16.6 mg/dL; CRE (72 h, time 3 day): 0.2 mg/dL; Ca (72 h, time 3 day): 10.9 mg/dL; Cl (72 h, time 3 day): 107 meq/L; DBIL (72 h, time 3 day): 0.01 mg/dL; GLC (72 h, time 3 day): 160.2 mg/dL; IP (72 h, time 3 day): 7.6 mg/dL; K (72 h, time 3 day): 4.4 meq/L; LDH (72 h, time 3 day): 202.2 IU/L; Na (72 h, time 3 day): 142.2 meq/L; PL (72 h, time 3 day): 161.2 mg/dL; RALB (72 h, time 3 day): 2.8 g/dL; TBIL (72 h, time 3 day): 0.028 mg/dL; TC (72 h, time 3 day): 91.8 mg/dL; TG (72 h, time 3 day): 49 mg/dL; TP (72 h, time 3 day): 5.2 g/dL; gamma-GTP (72 h, time 3 day): 2 IU/L; TERMINAL_BW ([…], time 7 day): 222.8 g; TERMINAL_BW ([…], time 14 day): 237.7 g; TERMINAL_BW ([…], time 28 day): 237.4 g; APTT ([…], time 7 day): 18.6 s; Bas ([…], time 7 day): 0%; Eos ([…], time 7 day): 0.6%; Fbg ([…], time 7 day): 247 mg/dL; Hb ([…], time 7 day): 14.2 g/dL; Ht ([…], time 7 day): 42.3%; Lym ([…], time 7 day): 80.4%; MCH ([…], time 7 day): 20.5 pg; MCHC ([…], time 7 day): 33.5%; MCV ([…], time 7 day): 61.2 fL; Mono ([…], time 7 day): 2.4%; Neu ([…], time 7 day): 15.4%; PT ([…], time 7 day): 15.9 s; Plat ([…], time 7 day): 123.2 x10_4/uL; RBC ([…], time 7 day): 691.6 x10_4/ul; Ret ([…], time 7 day): 3.7%; WBC ([…], time 7 day): 124.5 x10_2/uL; APTT ([…], time 14 day): 21.1 s; Bas ([…], time 14 day): 0%; Eos ([…], time 14 day): 0.2%; Fbg ([…], time 14 day): 177.8 mg/dL; Hb ([…], time 14 day): 15.1 g/dL; Ht ([…], time 14 day): 44.1%; Lym ([…], time 14 day): 74%; MCH ([…], time 14 day): 19.5 pg; MCHC ([…], time 14 day): 34.3%; MCV ([…], time 14 day): 56.9 fL; Mono ([…], time 14 day): 3.2%; Neu ([…], time 14 day): 21.4%; PT ([…], time 14 day): 18.3 s; Plat ([…], time 14 day): 117.4 x10_4/uL; RBC ([…], time 14 day): 775 x10_4/ul; Ret ([…], time 14 day): 2.4%; WBC ([…], time 14 day): 140.8 x10_2/uL; APTT ([…], time 28 day): 24.5 s; Bas ([…], time 28 day): 0%; Eos ([…], time 28 day): 0.5%; Fbg ([…], time 28 day): 140.8 mg/dL; Hb ([…], time 28 day): 16.7 g/dL; Ht ([…], time 28 day): 48.9%; Lym ([…], time 28 day): 53.8%; MCH ([…], time 28 day): 18.1 pg; MCHC ([…], time 28 day): 34.1%; MCV ([…], time 28 day): 53 fL; Mono ([…], time 28 day): 5%; Neu ([…], time 28 day): 39.8%; PT ([…], time 28 day): 20.1 s; Plat ([…], time 28 day): 79.2 x10_4/uL; RBC ([…], time 28 day): 924.8 x10_4/ul; Ret ([…], time 28 day): 2.1%; WBC ([…], time 28 day): 178.3 x10_2/uL; KIDNEY_L ([…], time 7 day): 1 g; KIDNEY_R ([…], time 7 day): 1 g; KIDNEY_TOTAL ([…], time 7 day): 2 g; KIDNEY_L ([…], time 14 day): 1.1 g; KIDNEY_R ([…], time 14 day): 1.1 g; KIDNEY_TOTAL ([…], time 14 day): 2.1 g; KIDNEY_L ([…], time 28 day): 1.1 g; KIDNEY_R ([…], time 28 day): 1.1 g; KIDNEY_TOTAL ([…], time 28 day): 2.2 g; LIVER ([…], time 7 day): 11.6 g; LIVER ([…], time 14 day): 10.6 g; LIVER ([…], time 28 day): 9.7 g; A/G ([…], time 7 day): 1.1; ALP ([…], time 7 day): 2330.2 IU/L; ALT ([…], time 7 day): 145.2 IU/L; AST ([…], time 7 day): 324.2 IU/L; BUN ([…], time 7 day): 19 mg/dL; CRE ([…], time 7 day): 0.2 mg/dL; Ca ([…], time 7 day): 10.4 mg/dL; Cl ([…], time 7 day): 107.6 meq/L; DBIL ([…], time 7 day): 0.094 mg/dL; GLC ([…], time 7 day): 152.2 mg/dL; IP ([…], time 7 day): 8.7 mg/dL; K ([…], time 7 day): 4.6 meq/L; LDH ([…], time 7 day): 230.6 IU/L; Na ([…], time 7 day): 144 meq/L; PL ([…], time 7 day): 179 mg/dL; RALB ([…], time 7 day): 2.7 g/dL; TBIL ([…], time 7 day): 0.1 mg/dL; TC ([…], time 7 day): 100 mg/dL; TG ([…], time 7 day): 30.2 mg/dL; TP ([…], time 7 day): 5.2 g/dL; gamma-GTP ([…], time 7 day): 7 IU/L; A/G ([…], time 14 day): 1.1; ALP ([…], time 14 day): 2530.2 IU/L; ALT ([…], time 14 day): 69 IU/L; AST ([…], time 14 day): 237.2 IU/L; BUN ([…], time 14 day): 16.6 mg/dL; CRE ([…], time 14 day): 0.2 mg/dL; Ca ([…], time 14 day): 9.7 mg/dL; Cl ([…], time 14 day): 106.8 meq/L; DBIL ([…], time 14 day): 0.3 mg/dL; GLC ([…], time 14 day): 135.6 mg/dL; IP ([…], time 14 day): 8.2 mg/dL; K ([…], time 14 day): 4.1 meq/L; LDH ([…], time 14 day): 250.8 IU/L; Na ([…], time 14 day): 141.8 meq/L; PL ([…], time 14 day): 126.4 mg/dL; RALB ([…], time 14 day): 2.5 g/dL; TBIL ([…], time 14 day): 0.3 mg/dL; TC ([…], time 14 day): 57.4 mg/dL; TG ([…], time 14 day): 22 mg/dL; TP ([…], time 14 day): 4.8 g/dL; gamma-GTP ([…], time 14 day): 6.6 IU/L; A/G ([…], time 28 day): 1; ALP ([…], time 28 day): 1953.8 IU/L; ALT ([…], time 28 day): 94 IU/L; AST ([…], time 28 day): 418 IU/L; BUN ([…], time 28 day): 13.5 mg/dL; CRE ([…], time 28 day): 0.2 mg/dL; Ca ([…], time 28 day): 9.1 mg/dL; Cl ([…], time 28 day): 107.8 meq/L; DBIL ([…], time 28 day): 1 mg/dL; GLC ([…], time 28 day): 116.5 mg/dL; IP ([…], time 28 day): 7.6 mg/dL; K ([…], time 28 day): 3.9 meq/L; LDH ([…], time 28 day): 377.5 IU/L; Na ([…], time 28 day): 140.5 meq/L; PL ([…], time 28 day): 96.5 mg/dL; RALB ([…], time 28 day): 2 g/dL; TBIL ([…], time 28 day): 1 mg/dL; TC ([…], time 28 day): 38 mg/dL; TG ([…], time 28 day): 29.8 mg/dL; TP ([…], time 28 day): 4 g/dL; gamma-GTP ([…], time 28 day): 15.2 IU/L

— ChEMBL document CHEMBL3885861, “Open TG-GATES”
